These results are taken from patent US6759207B2, “Fluorogenic or fluorescent reporter molecules and their applications for whole-cell fluorescence screening assays for caspases and other enzymes and the use thereof” (Cytovia, Inc., priority 1997, dated 2004).

One may read the Km as the concentration of substrate that gives half-maximal velocity.

Data set [1] is described as follows: Fluorescence of modified Rhodamine dyes (spectrometry and spectrofluorometry). It counts as physicochemical. As to the method:
Modified Rhodamine dyes were evaluated using both conventional spectrometry and spectrofluorometry. For both types of analysis the dyes were dissolved in either methanol or 50 mM Tris at final dye concentrations ranging from 10 nM to 100 μM. An absorbance spectrum from wavelengths of 200 nm to 700 nm was determined for each dye using a Beckman DU-7000 spectrophotometer. The dyes all had absorbance peaks at around 470 to 480 nm. This wavelength was chosen as the fluorescence excitation wavelength and a full fluorescence emission spectrum was determined using a Hitachi F-2000 spectrofluorometer. For each dye, the emission peak was around 520 nm and the fluorescent output was measured under the conditions tested (see Table 1).

The next data set concerns HL-60 cells. Nature of the data set: Uptake and retention of modified Rhodamine dyes by HL-60 cells (epifluorescence microscopy). It counts as cell-based. Conditions: 10 μM or 50 μM dye; for staining of HL-60 cells: 37° C., serum-free Iscove's medium; for leakage of the dye into the medium / retention in cells: after washing. As to the method:
HL-60 cells were placed in 5 ml of Iscove's medium (without serum or phenol-red) containing 10 μM or 50 μM N-octyloxycarbonyl-Rhodamine 110, N-decyloxycarbonyl-Rhodamine-110, N-dodecyloxycarbonyl-Rhodamine-110, N-hexyloxycarbonyl-Rhodamine-110, N-(ethylthio)carbonyl-Rhodamine 110 or Rhodamine 110. The cells were incubated for varying times at 37° C. in a CO2 incubator, recovered by centrifugation, and washed in 50 mL of ice-cold medium. The cells were re-centrifuged and the final pellet was resuspended in 50 μL of fresh medium. Aliquots of each cell suspension were placed in microslides and viewed on a Nikon inverted microscope with epifluorescent illumination.

The target in the next data set is T1, recombinant CPP32 (Homo sapiens, UniProt P42574).
T1 construct: made in house; host or cells: Sf9 insect cells, baculovirus vector
T1 sequence (P42574 29-175 limits assumed): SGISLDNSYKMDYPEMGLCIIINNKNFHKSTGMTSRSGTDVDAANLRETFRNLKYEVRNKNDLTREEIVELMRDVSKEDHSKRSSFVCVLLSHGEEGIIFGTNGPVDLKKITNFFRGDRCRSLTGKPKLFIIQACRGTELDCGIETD
T1 sequence (P42574 176-277 limits assumed): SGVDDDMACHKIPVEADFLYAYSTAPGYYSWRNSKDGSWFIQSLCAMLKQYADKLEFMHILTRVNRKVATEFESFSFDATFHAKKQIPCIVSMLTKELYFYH
Description: Fluorometric enzyme assay, cleavage of substrate by recombinant CPP32. As to conditions: for efficiency as substrate for CPP32: summary of Table 4. It counts as biochemical. The procedure:
(§1) The activities of N-(Z-VD)-N′-acetyl-Rhodamine 110, N-(Z-VAD)-N′-acetyl-Rhodamine 110, N-(Z-DEVD)-N′-acetyl-Rhodamine 110 SEQ ID NO:5, N-(Z-YVAD)-N-acetyl-Rhodamine 110 SEQ ID NO:2, (Z-VAD)2-Rhodamine 110 and (Z-YVAD)2-Rhodamine 110 SEQ ID NO:2 as synthetic substrates for recombinant CPP32 and ICE were measured in a fluorometric enzyme assay. […] See, Webb, N. R. et al., “Expression of proteins using recombinant Baculovirus,” Techniques 2:173-188 (1990). Cleavage of the synthetic substrates by the enzyme results in a fluorescent signal which is read in a spectrofluorometer or in a fluorometric microtiter plate reader. Using this assay, the Km and Vmax values were determined for each substrate with either CPP32 or ICE.
(§2) CPP32 and ICE dependent substrate cleavage was measured using the following buffer conditions: 100 mM HEPES pH 7.5, with 10% sucrose, 1% CHAPS, 5 mM glutathione, and 1-100 μM test substrate. Nonspecific enzyme cleavage was determined with the use of the specific CPP32 and ICE inhibitors consisted of an oligomer with the sequence Asp-Glu-Val-Asp or Tyr-Val-Ala-Asp, respectively, with an aldehyde group conjugated to the C-terminus. The assay for enzyme activity was typically carried out at 37° C. for 60 minutes.

A further data set concerns the target T2, recombinant ICE (Homo sapiens, UniProt P29466).
T2 construct: made in house; host or cells: Sf9 insect cells, baculovirus vector
T2 sequence (P29466 120-297 limits assumed): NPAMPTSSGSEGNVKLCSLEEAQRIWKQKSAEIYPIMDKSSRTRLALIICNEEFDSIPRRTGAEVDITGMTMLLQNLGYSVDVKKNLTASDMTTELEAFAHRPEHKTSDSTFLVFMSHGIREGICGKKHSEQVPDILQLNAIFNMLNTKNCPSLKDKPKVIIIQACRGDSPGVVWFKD
T2 sequence (P29466 317-404 limits assumed): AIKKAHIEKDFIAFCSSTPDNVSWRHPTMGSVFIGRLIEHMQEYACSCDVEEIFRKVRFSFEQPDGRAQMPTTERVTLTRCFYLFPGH
Nature of the data set: Fluorometric enzyme assay, cleavage of substrate by recombinant ICE. Conditions: for ICE Vmax / Km: 1-100 μM substrate, 37° C.; for Km: NA = no activity observed at 1-100 μM substrate, 3 h incubation; for efficiency as substrate for ICE: summary of Table 4. It counts as biochemical. As to the method:
as §1, §2

With `CCCCCCOC(=O)Nc1ccc2c(c1)Oc1cc(N)ccc1C21OC(=O)c2ccccc21` (stereo not drawn) [N-Hexyloxycarbonyl-Rhodamine 110, N-Hexyloxycarbonyl-Rhodamine-110], in data set [1] (Test Conc. 0.1 μM, MeOH), the “Peak Emission Wavelength” value is 520 nm, the “Peak Excitation Wavelength” value is on record as 465 nm and the “Signal Amplitude” value was found to be 109. For the same molecule, in the data set on HL-60 cells, the “staining of HL-60 cells” value is on record as “stained HL-60 cells less intensely” and the “leakage of the dye into the medium / retention in cells” value is reported as “still well-retained”.

Consider `CCSC(=O)Nc1ccc2c(c1)Oc1cc(N)ccc1C21OC(=O)c2ccccc21` (stereo not drawn) [N-(Ethylthio)carbonyl-Rhodamine 110], for which, in data set [1] (Test Conc. 1 μM, Tris), the “Peak Emission Wavelength” value is 520 nm, the “Peak Excitation Wavelength” value is 490 nm and the “Signal Amplitude” value came to 2430. In the data set on HL-60 cells, the “staining of HL-60 cells” value is “moderate, but still easily detectable staining” and the “leakage of the dye into the medium / retention in cells” value was “slight leakage”.

As to `CC(=O)Nc1ccc2c(c1)Oc1cc(NC(=O)[C@H](CC(=O)O)NC(=O)[C@@H](NC(=O)[C@H](CCC(=O)O)NC(=O)[C@H](CC(=O)O)NC(=O)OCc3ccccc3)C(C)C)ccc1C21OC(=O)c2ccccc21` (stereo partly drawn) [N-(Z-DEVD)-N′-Ac-Rhodamine 110, N-(Z-Asp-Glu-Val-Asp)-N′-acetyl-Rhodamine 110], the “CPP32 Vmax” value at recombinant CPP32 (1-100 μM substrate, 37° C.) is on record as 160 nmol/min. The “efficiency as substrate for CPP32” value at recombinant CPP32 is listed as “efficient substrate”. Besides, on recombinant ICE, the “ICE Vmax” value is 9 nmol/min, the Michaelis constant (Km) stood at 12 µM and the “efficiency as substrate for ICE” value was “efficient substrate”.

Take `CCCCCCN(C)C(=O)Nc1ccc2c(c1)Oc1cc(N)ccc1C21OC(=O)c2ccccc21` (stereo not drawn) [N-(N-Hexyl-N-methylcarbamyl)-Rhodamine 110]: in data set [1] (Test Conc. 1 μM, Tris), the “Peak Emission Wavelength” value is reported as 520 nm, the “Peak Excitation Wavelength” value was found to be 470 nm and the “Signal Amplitude” value was 1466.

For `CCCCCCSC(=O)Nc1ccc2c(c1)Oc1cc(N)ccc1C21OC(=O)c2ccccc21` (stereo not drawn) [N-(Hexylthio)carbonyl-Rhodamine 110], in data set [1] (Test Conc. 1 μM, MeOH), the “Peak Emission Wavelength” value amounted to 530 nm, the “Peak Excitation Wavelength” value worked out at 490 nm and the “Signal Amplitude” value came out at 650.

Take `CC(=O)Nc1ccc2c(c1)Oc1cc(NC(=O)[C@H](CC(=O)O)NC(=O)[C@H](C)NC(=O)[C@@H](NC(=O)[C@H](Cc3ccc(O)cc3)NC(=O)OCc3ccccc3)C(C)C)ccc1C21OC(=O)c2ccccc21` (stereo partly drawn) [N-(Z-YVAD)-N′-Ac-Rhodamine 110, N-(Z-Tyr-Val-Ala-Asp)-N′-acetyl-Rhodamine 110]: the “efficiency as substrate for CPP32” value on recombinant CPP32 is recorded as “not for CPP32”. At recombinant ICE, the “ICE Vmax” value came to 96 nmol/min, the Km turned out to be 32 µM and the “efficiency as substrate for ICE” value is “efficient substrates”.

Take `CCCCCCCCCCCCOC(=O)Nc1ccc2c(c1)Oc1cc(N)ccc1C21OC(=O)c2ccccc21` (stereo not drawn) [N-Dodecyloxycarbonyl-Rhodamine 110, N-Dodecyloxycarbonyl-Rhodamine-110]: in data set [1] (Test Conc. 1 μM, MeOH), the “Peak Emission Wavelength” value was found to be 520 nm, the “Peak Excitation Wavelength” value is listed as 480 nm and the “Signal Amplitude” value was determined as 640. In addition, in the data set on HL-60 cells, the “staining of HL-60 cells” value is “stained HL-60 cells intensely” and the “leakage of the dye into the medium / retention in cells” value was “almost no leakage of the dye into the medium”.

In the case of `CS(=O)(=O)Nc1ccc2c(c1)Oc1cc(N)ccc1C21OC(=O)c2ccccc21` (stereo not drawn) [N-Methylsulfonyl-Rhodamine-110, N-Methylsulfonyl-Rhodamine 110], in data set [1] (Test Conc. 1 μM, Tris), the “Peak Emission Wavelength” value worked out at 520 nm, the “Peak Excitation Wavelength” value came to 485 nm and the “Signal Amplitude” value turned out to be 988.

As for `CN(C)C(=O)Nc1ccc2c(c1)Oc1cc(N)ccc1C21OC(=O)c2ccccc21` (stereo not drawn) [N-Dimethylcarbamyl-Rhodamine-110, N-Dimethylcarbamyl-Rhodamine 110], in data set [1] (Test Conc. 0.1 μM, Tris), the “Peak Emission Wavelength” value is recorded as 520 nm, the “Peak Excitation Wavelength” value turned out to be 490 nm and the “Signal Amplitude” value was 446.

As to `COC(=O)Nc1ccc2c(c1)Oc1cc(N)ccc1C21OC(=O)c2ccccc21` (stereo not drawn) [N-Methoxycarbonyl-Rhodamine 110], in data set [1] (Test Conc. 0.1 μM, Tris), the “Peak Emission Wavelength” value worked out at 520 nm, the “Peak Excitation Wavelength” value was determined as 470 nm and the “Signal Amplitude” value is on record as 254.

As for `CCCCCCCCOC(=O)Nc1ccc2c(c1)Oc1cc(N)ccc1C21OC(=O)c2ccccc21` (stereo not drawn) [N-Octyloxycarbonyl-Rhodamine 110], in data set [1] (Test Conc. 1 μM, MeOH), the “Peak Emission Wavelength” value worked out at 520 nm, the “Peak Excitation Wavelength” value stood at 470 nm and the “Signal Amplitude” value was 850. For the same molecule, in the data set on HL-60 cells, the “staining of HL-60 cells” value was “stained HL-60 cells intensely” and the “leakage of the dye into the medium / retention in cells” value is reported as “almost no leakage of the dye into the medium”.

Take `COCCOCCOCCOC(=O)Nc1ccc2c(c1)Oc1cc(N)ccc1C21OC(=O)c2ccccc21` (stereo not drawn) [N-(2,5,8-Trioxadecyloxycarbonyl)-Rhodamine 110]: in data set [1] (Test Conc. 1 μM, Tris), the “Peak Emission Wavelength” value is listed as 520 nm, the “Peak Excitation Wavelength” value stood at 485 nm and the “Signal Amplitude” value is 2841.

In the case of `CCCCOCCOC(=O)Nc1ccc2c(c1)Oc1cc(N)ccc1C21OC(=O)c2ccccc21` (stereo not drawn) [N-(2-Butoxyethoxy)carbonyl-Rhodamine 110, N-(2-Butoxyethoxycarbonyl)-Rhodamine 110], in data set [1] (Test Conc. 1 μM, Tris), the “Peak Emission Wavelength” value was found to be 520 nm, the “Peak Excitation Wavelength” value turned out to be 470 nm and the “Signal Amplitude” value turned out to be 2047.

Consider `CCCCCCCCSC(=O)Nc1ccc2c(c1)Oc1cc(N)ccc1C21OC(=O)c2ccccc21` (stereo not drawn) [N-(Octylthio)carbonyl-Rhodamine 110, N-(Octylthio)carbonyl Rhodamine 110], for which, in data set [1] (Test Conc. 1 μM, MeOH), the “Peak Emission Wavelength” value turned out to be 520 nm, the “Peak Excitation Wavelength” value is reported as 470 nm and the “Signal Amplitude” value was 471.

In the case of `Cl.N=c1ccc2c(-c3ccccc3C(=O)O)c3ccc(N)cc3oc-2c1` [Rhodamine 110, reference compound], in data set [1] (Test Conc. 0.01 μM, Tris), the “Peak Emission Wavelength” value came to 520 nm, the “Peak Excitation Wavelength” value is on record as 490 nm and the “Signal Amplitude” value is 284. In the data set on HL-60 cells, the “staining of HL-60 cells” value is reported as “low intensity of cellular staining” and the “leakage of the dye into the medium / retention in cells” value is “quickly leaked out of the cells”.

As for `CCOC(=O)Nc1ccc2c(c1)Oc1cc(N)ccc1C21OC(=O)c2ccccc21` (stereo not drawn) [N-Ethoxycarbonyl-Rhodamine 110], in data set [1] (Test Conc. 1 μM, Tris), the “Peak Emission Wavelength” value came to 520 nm, the “Peak Excitation Wavelength” value worked out at 485 nm and the “Signal Amplitude” value worked out at 3070.

As to `CCCCCCCCCCOC(=O)Nc1ccc2c(c1)Oc1cc(N)ccc1C21OC(=O)c2ccccc21` (stereo not drawn) [N-Decyloxycarbonyl-Rhodamine 110, N-Decyloxycarbonyl-Rhodamine-110], in data set [1] (Test Conc. 1 μM, MeOH), the “Peak Emission Wavelength” value amounted to 520 nm, the “Peak Excitation Wavelength” value is given as 475 nm and the “Signal Amplitude” value was 827. Besides, in the data set with HL-60 cells, the “staining of HL-60 cells” value is “stained HL-60 cells intensely” and the “leakage of the dye into the medium / retention in cells” value is “almost no leakage of the dye into the medium”.

On to N-Acetyl-Rhodamine 116, for which, in data set [1] (Test Conc. 1 μM, Tris), the “Peak Emission Wavelength” value was 530 nm, the “Peak Excitation Wavelength” value turned out to be 470 nm and the “Signal Amplitude” value is reported as 644.
